Values of other authors in US20260097000A1, “INTRANASAL DELIVERY OF CANNABINOIDS” (priority 2022, published 2026).

Assays:
[1] = oral delivery
[2] = rats, oral 10 mg kg^−1 and pulmonary 20 mg kg^−1

Compound: C=C(C)[C@@H]1CCC(C)=C[C@H]1c1c(O)cc(CCCCC)cc1O [CBD, cannabidiol]
- 7-hydroxy-cannabidiol (7-OH-CBD) metabolite share of orally delivered CBD [1]: 40%
- CBD levels in the brain [2]: 200 to 300 ng/g
